Measurements reported in ChEMBL document CHEMBL5365457, “Selective HDAC3 Inhibitors with Potent In Vivo Antitumor Efficacy against Triple-Negative Breast Cancer” (J Med Chem, 2023).
The source made the active and inactive calls. No cut-off for these calls is given here.

What was measured:
4T1 [1] = test: Antitumor activity against mouse 4T1 cells implanted in BALB/c mouse assessed as reduction in tumor volume at 15 mg/kg, ip administered 5 times a week for 21 days (reference value: 52.05+/-12.35 mm3); assay type: functional; settings: time 21 day
4T1 [2] = test: Induction of apoptosis in mouse 4T1 cells at 38.6 uM incubated for 72 hrs by annexin/PI staining based flow cytometry analysis (reference value: 1.35%); assay type: functional
4T1 [3] = test: Antitumor activity against mouse 4T1 cells implanted in BALB/c mouse assessed as reduction in lung metastasis at 5 to 15 mg/kg, ip measured for 7 days by fluorescence based assay; assay type: functional, organism-based; settings: dose 5-15 mg/kg, time 7.0 day
4T1 [4] = test: Antitumor activity against mouse 4T1 cells implanted in BALB/c mouse assessed as upregulation of caspase-3 level in tumor at 5 to 15 mg/kg, ip by Western blot analysis; assay type: functional, organism-based; settings: dose 5-15 mg/kg
[5] = AUC (0 to t) in Wistar rat at 15 mg/kg, ip measured upto 24 hrs by HPLC analysis; assay type: ADME, organism-based; parameters: dose 15 mg/kg, time < 24 hrs, route ip; settings: in vivo
MDA-MB-231 [6] = test: Cytotoxicity against wild type human MDA-MB-231 cells assessed as reduction in cell viability incubated for 72 hrs in presence of oxaliplatin by MTT assay; assay type: functional, cell-based; settings: MDA-MB-231, 72 h
[7] = Cytotoxicity against Oxaliplatin-resistant human MDA-MB-231 cell assessed as reduction in cell viability incubated for 72 hrs by MTT assay; assay type: functional, cell-based; settings: Oxaliplatin-resistant MDA-MB-231 cell
[8] = Metabolic stability in rat liver microsome assessed as intrinsic clearance preincubated for 5 mins followed by NADPH addition and measured after 60 mins by HPLC analysis; assay type: ADME; settings: liver microsomes, time 65 min, read-out: CLH
[9] = Toxicity in BALB/c mouse implanted with mouse 4T1 cells assessed as neutrophilic infiltration in kidney at 5 to 15 mg/kg, ip measured after 21 days; assay type: organism-based; settings: in vivo, 504 h, dose 5-15 mg/kg, time 21 day
[10] = target: T1, Histone deacetylase 3 (Mus musculus) (UniProt O88895); test: Inhibition of HDAC3 in mouse 4T1 cells assessed as increase in acetylation of H4K12 level at 1 uM incubated for 72 hrs by western blot analysis; assay type: cell-based
T1 sequence (whole entry): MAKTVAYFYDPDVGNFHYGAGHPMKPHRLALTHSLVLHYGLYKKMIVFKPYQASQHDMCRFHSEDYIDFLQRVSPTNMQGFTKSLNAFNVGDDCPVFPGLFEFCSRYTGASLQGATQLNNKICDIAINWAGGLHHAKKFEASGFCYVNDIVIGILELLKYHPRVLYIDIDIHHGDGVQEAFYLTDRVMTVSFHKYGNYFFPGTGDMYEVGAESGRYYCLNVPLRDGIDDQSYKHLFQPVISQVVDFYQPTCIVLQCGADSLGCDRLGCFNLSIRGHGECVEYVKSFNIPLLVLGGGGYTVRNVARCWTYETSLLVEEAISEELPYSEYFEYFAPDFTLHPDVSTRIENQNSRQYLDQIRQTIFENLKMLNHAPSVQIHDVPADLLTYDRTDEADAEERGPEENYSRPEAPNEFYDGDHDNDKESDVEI

4T1 [11] = test: In-vivo inhibition of HDAC3 in BALB/c mouse implanted with mouse 4T1 cells assessed as increase in acetylation of SMC3 level at 5 to 15 mg/kg, ip by Western blot analysis; assay type: functional, organism-based; settings: dose 5-15 mg/kg
[12] = Selectivity ratio of IC50 for cytotoxicity against human HEK293 cells assessed as inhibition of cell growth to IC50 for cytotoxicity against human MDA-MB-453 cells assessed as inhibition of cell growth; assay type: toxicity, cell-based; settings: HEK293 cells versus MDA-MB-453 cells, read-out: Ratio IC50
Histone deacetylase 4 = Histone deacetylase 4 (Homo sapiens, UniProt P56524); test: Inhibition of HDAC4 (unknown origin) incubated for 30 mins by fluorescence based microplate analysis
4T1 [13] = test: Induction of apoptosis in mouse 4T1 cells at 2.75 uM incubated for 72 hrs by annexin/PI staining based flow cytometry analysis (reference value: 1.35%); assay type: functional
4T1 [14] = test: Antitumor activity against mouse 4T1 cells implanted in BALB/c mouse assessed as upregulation of caspase-7 level in tumor at 5 to 15 mg/kg, ip by Western blot analysis; assay type: functional, organism-based; settings: dose 5-15 mg/kg
[15] = Selectivity ratio of IC50 for cytotoxicity against human MCF-10A cells assessed as inhibition of cell growth to IC50 for cytotoxicity against human MDA-MB-453 cells assessed as inhibition of cell growth; assay type: toxicity, cell-based; settings: MCF-10A cells versus MDA-MB-453 cells, read-out: Ratio IC50
4T1 [16] = test: Antitumor activity against mouse 4T1 cells implanted in BALB/c mouse assessed as tumor growth inhibition at 5 mg/kg, ip measured on day 7; assay type: functional; settings: 4T1, 168 h, time 7 day, read-out: TGI
MDA-MB-231 [17] = test: Cytotoxicity against human MDA-MB-231 cells assessed as inhibition of cell growth incubated for 72 hrs by MTT assay; assay type: functional, cell-based; settings: MDA-MB-231, 72 h
[18] = MRT (0 to infinity) in Wistar rat at 15 mg/kg, ip measured upto 24 hrs by HPLC analysis; assay type: ADME, organism-based; settings: in vivo
4T1 [19] = test: Induction of apoptosis in mouse 4T1 cells assessed as nuclear fragmentation incubated for 72 hrs by acridine orange staining based analysis; assay type: functional, cell-based
4T1 [20] = test: Antitumor activity against mouse 4T1 cells implanted in BALB/c mouse assessed as reduction in tumor weight at 15 mg/kg, ip administered 5 times a week for 21 days; assay type: functional; settings: time 21 day
4T1 [21] = test: In-vivo inhibition of HDAC3 in ip dosed BALB/c mouse implanted with mouse 4T1 cells assessed as hyperacetylation of H3K27 level by Western blot analysis; assay type: functional, organism-based; settings: dose 5-15 mg/kg
[22] = Selectivity ratio of IC50 for cytotoxicity against human HCEC cells assessed as inhibition of cell growth to IC50 for cytotoxicity against human MDA-MB-231 cells assessed as inhibition of cell growth; assay type: toxicity, cell-based; settings: HCEC cells versus MDA-MB-231 cells, read-out: Ratio IC50
MCF7 = test: Cytotoxicity against human MCF7 cells assessed as inhibition of cell growth incubated for 72 hrs by MTT assay; assay type: functional, cell-based; settings: MCF7, 72 h
4T1 [23] = test: Cell cycle arrest in mouse 4T1 cells assessed as accumulation of cells at G2/M phase at 110 nM incubated for 72 hrs by flow cytometry; assay type: functional
4T1 [24] = test: Antitumor activity against mouse 4T1 cells implanted in BALB/c mouse assessed as reduction in tumor growth at 5 to 15 mg/kg, ip administered 5 times a week for 21 days; assay type: functional, organism-based; settings: dose 5-15 mg/kg, time 21.0 day
[25] = AUC (0 to t) in Wistar rat at 5 mg/kg, ip measured upto 24 hrs by HPLC analysis; assay type: ADME, organism-based; parameters: dose 5 mg/kg, time < 24 hrs, route ip; settings: in vivo
[26] = Toxicity against BALB/c mouse implanted with mouse 4T1 cells assessed as body weight gain at 5 to 15 mg/kg,ip administered 5 times a week for 21 days; assay type: organism-based; settings: in vivo, 504 h, dose 5-15 mg/kg, time 21 day
[27] = AUMC (0 to infinity) in Wistar rat at 15 mg/kg, ip measured upto 24 hrs by HPLC analysis; assay type: ADME, organism-based; settings: in vivo
4T1 [28] = test: Induction of apoptosis in mouse 4T1 cells at 110 nM incubated for 72 hrs by annexin/PI staining based flow cytometry analysis (reference value: 1.35%); assay type: functional
[29] = MRT (0 to infinity) in Wistar rat at 5 mg/kg, ip measured upto 24 hrs by HPLC analysis; assay type: ADME, organism-based; settings: in vivo

Histone deacetylase 4, sequence (P56524 whole entry): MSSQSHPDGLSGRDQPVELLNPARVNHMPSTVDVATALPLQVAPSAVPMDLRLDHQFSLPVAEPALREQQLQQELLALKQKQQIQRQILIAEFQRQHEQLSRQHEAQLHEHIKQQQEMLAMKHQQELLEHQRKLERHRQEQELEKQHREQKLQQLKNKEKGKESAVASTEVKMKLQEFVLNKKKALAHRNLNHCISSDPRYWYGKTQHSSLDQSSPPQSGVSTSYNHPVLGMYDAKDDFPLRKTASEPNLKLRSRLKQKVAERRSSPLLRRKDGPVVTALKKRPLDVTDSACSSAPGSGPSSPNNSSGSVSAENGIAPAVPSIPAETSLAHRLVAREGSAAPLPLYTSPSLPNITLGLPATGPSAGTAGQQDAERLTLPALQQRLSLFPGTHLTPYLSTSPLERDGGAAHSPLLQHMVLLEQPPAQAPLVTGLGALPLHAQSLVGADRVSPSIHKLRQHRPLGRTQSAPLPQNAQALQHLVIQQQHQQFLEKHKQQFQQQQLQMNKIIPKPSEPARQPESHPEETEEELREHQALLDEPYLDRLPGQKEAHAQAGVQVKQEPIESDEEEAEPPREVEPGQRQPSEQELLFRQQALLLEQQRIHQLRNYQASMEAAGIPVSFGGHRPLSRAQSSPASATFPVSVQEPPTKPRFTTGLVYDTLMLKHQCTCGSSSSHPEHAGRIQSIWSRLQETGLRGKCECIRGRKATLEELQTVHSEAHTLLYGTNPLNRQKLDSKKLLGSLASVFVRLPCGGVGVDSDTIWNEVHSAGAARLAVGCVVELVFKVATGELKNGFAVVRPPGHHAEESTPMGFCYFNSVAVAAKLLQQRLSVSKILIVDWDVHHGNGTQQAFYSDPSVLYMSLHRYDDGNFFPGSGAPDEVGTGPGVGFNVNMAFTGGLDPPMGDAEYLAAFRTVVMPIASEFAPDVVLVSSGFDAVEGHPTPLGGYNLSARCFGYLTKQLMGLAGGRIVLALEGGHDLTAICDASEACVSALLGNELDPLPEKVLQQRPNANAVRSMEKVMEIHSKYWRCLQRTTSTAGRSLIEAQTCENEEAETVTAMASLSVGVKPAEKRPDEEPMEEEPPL

## CCCNNC(=O)c1cnc(NCc2ccc(OC)cc2)cn1
4T1 [1]
  Activity: 101.23 mm3
4T1 [2]
  Activity: 82.7%
4T1 [3]
  Activity: Active
4T1 [4]
  Activity: Active
[5]
  AUC(0-t) at 24 h: 19600 ng·h/mL
MDA-MB-231 [6]
  IC50: 403 nM
[7]
  IC50: 754 nM
[8]
  microsomal CLint: 36.2 µL/min/mg
[9]
  Activity: Non-Toxic
[10]
  inhibition: Active
4T1 [11]
  inhibition: Active
[12]
  selectivity ratio: 286
Histone deacetylase 4
  IC50: > 20000 nM
4T1 [13]
  Activity: 94.6%
4T1 [14]
  Activity: Active
[15]
  selectivity ratio: 385
4T1 [16]
  inhibition in vivo at 5 mg/kg: 76.2%
MDA-MB-231 [17]
  IC50: 740 nM
[18]
  MRT inf: 6.57 h
4T1 [19]
  Activity: Active
4T1 [20]
  Activity: 1.78 g
4T1 [21]
  inhibition: Dose-Dependent Effect
[22]
  selectivity ratio: 286
MCF7
  IC50: 950 nM
4T1 [23]
  Activity: 38.8%
4T1 [24]
  Activity: Active
[25]
  AUC(0-t) at 24 h: 4050 ng·h/mL
[26]
  Activity: Non-Toxic
[27]
  AUMC: 114.5 ug/ml.hr^2
4T1 [28]
  Activity: 36.8%
[29]
  MRT inf: 5.73 h
